Assay results published in publication PMC8584173, “The Cytotoxic Effect of Copper (II) Complexes with Halogenated 1,3-Disubstituted Arylthioureas on Cancer and Bacterial Cells” (International Journal of Molecular Sciences, 2021).

Assays:
[1] = test system: SW620 (human metastatic colon cancer); experiment: MTT cytotoxicity assay, SW620; type: cell-based; conditions: SW620, 72 h
Method: The human primary (SW480), metastatic (SW620) colon cancer, metastatic prostate cancer (PC3) and human immortal keratinocyte (HaCaT) cell lines were purchased from the American Type Culture Collection (ATCC, Rockville, USA). The cells were cultured in medium according to protocols (MEM for SW480 and SW620, RPMI 1640 for PC3 and DMEM for HaCaT cells) supplemented with 10% fetal bovine serum (FBS), penicillin (100 U/mL) and streptomycin (100 μg/mL) and cultured in 37 °C/ 5% CO2 humidified incubator. The cells were cultured until appropriate confluence was achieved (80–90%). Next, they were harvested by treatment with 0.25% trypsin (Gibco Life Technologies, USA) and used for studies.
Cells without studied compounds in medium were used as a control.
The cell viability was assessed by determination of MTT salt (3-(4,5-dimethylthiazol-2-yl)-2,5-diphenyltetrazolium bromide) conversion by mitochondrial dehydrogenase. MTT assay was performed as previously described. Experiments were repeated three times. Cell viability was presented as a percentage of MTT reduction in the treated cells versus the control cells. Number of viable cells cultured without studied compounds was assumed to be 100%. Decreased relative MTT level means decreased cell viability.

S. aureus ATCC 25923 = experiment: MIC, twofold serial microdilution; type: cell-based, Staphylococcus aureus; conditions: S. aureus ATCC 25923, 18 h, 35 °C
Method: (§1) The antimicrobial activity of the compounds was tested on Gram-positive bacteria (Staphylococcus aureus NCTC 4163, Staphylococcus aureus ATCC 25923, Staphylococcus aureus ATCC 6538, Staphylococcus aureus ATCC 29213, Staphylococcus epidermidis ATCC 12228, Staphylococcus epidermidis ATCC 35984), Gram-negative rods (Escherichia coli ATCC 10538, Escherichia coli ATCC 25922, Pseudomonas aeruginosa ATCC 15442, Pseudomonas aeruginosa ATCC 27863) and yeasts (Candida albicans ATCC 10231, Candida albicans ATCC 90028, Candida parapsilosis ATCC 22019). Hospital methicillin-resistant strains of Staphylococcus aureus and Staphylococcus epidermidis were obtained from the collection of the Department of Pharmaceutical Microbiology, Medical University of Warsaw, Poland.
(§2) Antifungal activities were assessed using Mueller–Hinton agar + 2% glucose and 0.5 µg/mL methylene blue dye medium. Sterile filter paper discs (9 mm diameter, Whatman Number 3 chromatography paper) were dripped with tested compound solutions (in dimethylsulfoxide, DMSO) to load 400 μg of a given compound per disc. Dry discs were placed on the surface of appropriate agar medium. The results (diameter of the growth inhibition zone) were read after 18 h of incubation at 35 °C. Minimal inhibitory concentration (MIC) was tested by the twofold serial microdilution method (in 96-well microtiter plates) using Mueller–Hinton broth medium (Beckton Dickinson) for bacteria or RPMI-1640 medium for Candida species, according to CLSI guidelines. The stock solution of tested agent was prepared in DMSO and diluted in sterile water. […] The final inoculum of all studied microorganisms was 10^5 CFU/ mL^−1 (colony forming units per ml). Minimal inhibitory concentrations (the lowest concentration of a tested agent that prevents visible growth of a microorganism) were read after 18 h (bacteria) or 24 h (yeasts) of incubation at 35 °C.

S. aureus ATCC 29213 = experiment: MIC, twofold serial microdilution; type: cell-based, Staphylococcus aureus; conditions: S. aureus ATCC 29213, 18 h, 35 °C
Method: as §1, §2

S. aureus ATCC 6538 = experiment: MIC, twofold serial microdilution; type: cell-based, Staphylococcus aureus; conditions: S. aureus ATCC 6538, 18 h, 35 °C
Method: as §1, §2

S. aureus NCTC 4163 = experiment: MIC, twofold serial microdilution; type: cell-based, Staphylococcus aureus; conditions: S. aureus NCTC 4163, 18 h, 35 °C
Method: as §1, §2

P. aeruginosa ATCC 15442 = experiment: MIC, twofold serial microdilution; type: cell-based, Pseudomonas aeruginosa; conditions: P. aeruginosa ATCC 15442, 18 h, 35 °C
Method: as §1, §2

P. aeruginosa ATCC 27853 = experiment: MIC, twofold serial microdilution; type: cell-based, Pseudomonas aeruginosa; conditions: P. aeruginosa ATCC 27853, 18 h, 35 °C
Method: as §1, §2

[2] = test system: C. parapsilosis ATCC 22019; experiment: MIC, twofold serial microdilution; type: cell-based, Candida parapsilosis; conditions: C. parapsilosis ATCC 22019, 24 h, 35 °C
Method: as §1, §2

S. aureus 481 = experiment: MIC, hospital MRSA strain; type: cell-based, Staphylococcus aureus; conditions: for MIC: hospital MRSA S. aureus 481
Method: as §1, §2

S. aureus 495 = experiment: MIC, hospital MRSA strain; type: cell-based, Staphylococcus aureus; conditions: hospital MRSA S. aureus 495
Method: as §1, §2

S. aureus 496 = experiment: MIC, hospital MRSA strain; type: cell-based, Staphylococcus aureus; conditions: hospital MRSA S. aureus 496
Method: as §1, §2

S. aureus 497 = experiment: MIC, hospital MRSA strain; type: cell-based, Staphylococcus aureus; conditions: hospital MRSA S. aureus 497
Method: as §1, §2

S. aureus 498 = experiment: MIC, hospital MRSA strain; type: cell-based, Staphylococcus aureus; conditions: hospital MRSA S. aureus 498
Method: as §1, §2

S. aureus 514 = experiment: MIC, hospital MRSA strain; type: cell-based, Staphylococcus aureus; conditions: hospital MRSA S. aureus 514
Method: as §1, §2

S. aureus 522 = experiment: MIC, hospital MRSA strain; type: cell-based, Staphylococcus aureus; conditions: hospital MRSA S. aureus 522
Method: as §1, §2

S. aureus 537 = experiment: MIC, hospital MRSA strain; type: cell-based, Staphylococcus aureus; conditions: hospital MRSA S. aureus 537
Method: as §1, §2

S. aureus 567 = experiment: MIC, hospital MRSA strain; type: cell-based, Staphylococcus aureus; conditions: hospital MRSA S. aureus 567
Method: as §1, §2

S. aureus 568 = experiment: MIC, hospital MRSA strain; type: cell-based, Staphylococcus aureus; conditions: hospital MRSA S. aureus 568
Method: as §1, §2

S. aureus 572 = experiment: MIC, hospital MRSA strain; type: cell-based, Staphylococcus aureus; conditions: for MIC: hospital MRSA S. aureus 572
Method: as §1, §2

S. aureus 573 = experiment: MIC, hospital MRSA strain; type: cell-based, Staphylococcus aureus; conditions: hospital MRSA S. aureus 573
Method: as §1, §2

S. aureus 585 = experiment: MIC, hospital MRSA strain; type: cell-based, Staphylococcus aureus; conditions: hospital MRSA S. aureus 585
Method: as §1, §2

S. aureus 586 = experiment: MIC, hospital MRSA strain; type: cell-based, Staphylococcus aureus; conditions: hospital MRSA S. aureus 586
Method: as §1, §2

Compound | IC50 [1] [µM] | MIC (S. aureus ATCC 25923) [µg/mL] | MIC (S. aureus ATCC 29213) [µg/mL] | MIC (S. aureus ATCC 6538) [µg/mL] | MIC (S. aureus NCTC 4163) [µg/mL] | MIC (P. aeruginosa ATCC 15442) [µg/mL] | MIC (P. aeruginosa ATCC 27853) [µg/mL] | MIC [2] [µg/mL] | MIC (S. aureus 481) [µg/mL] | MIC (S. aureus 495) [µg/mL] | MIC (S. aureus 496) [µg/mL] | MIC (S. aureus 497) [µg/mL] | MIC (S. aureus 498) [µg/mL] | MIC (S. aureus 514) [µg/mL] | MIC (S. aureus 522) [µg/mL] | MIC (S. aureus 537) [µg/mL] | MIC (S. aureus 567) [µg/mL] | MIC (S. aureus 568) [µg/mL] | MIC (S. aureus 572) [µg/mL] | MIC (S. aureus 573) [µg/mL] | other results
O=[N+]([O-])c1cc([N+]2=C(Nc3ccc(Br)cc3)[S][Cu-2]23[S]C(Nc2ccc(Br)cc2)=[N+]3c2ccc(Cl)c([N+](=O)[O-])c2)ccc1Cl [Compound 3, Copper (II) complex with 1-(4-bromophenyl)-3-(4-chloro-3-nitrophenyl)thiourea] | 19.2 ± 2.3 | 8 | 16 | 8 | 8 | 128 | 128 | 64 | 4 | 4 | 4 | 4 | 4 | 4 | 4 | 4 | 4 | 4 | 4 | 4 | times more active than ciprofloxacin (S. aureus 481; S. aureus 481): 64 times; times more active than ciprofloxacin (S. aureus 572; S. aureus 572): 64 times; MIC (S. aureus 585): 4 µg/mL; MIC (S. aureus 586): 4 µg/mL
O=[N+]([O-])c1cc(NC2=[N+](c3ccc(Cl)c([N+](=O)[O-])c3)[Cu-2]3([S]2)[S]C(Nc2ccc(Cl)c([N+](=O)[O-])c2)=[N+]3c2ccc(Cl)c([N+](=O)[O-])c2)ccc1Cl [Compound 6, Copper (II) complex with 1,3-bis(4-chloro-3-nitrophenyl)thiourea] | 21.5 ± 1.4 | 8 | 8 | 8 | 8 | 128 | 128 | 64 | 32 | 32 | 32 | 32 | 32 | 32 | 32 | 32 | 32 | 32 | 32 | 32 | MIC (S. aureus 585): 32 µg/mL; MIC (S. aureus 586): 32 µg/mL
O=[N+]([O-])c1cc([N+]2=C(Nc3ccccc3Br)[S][Cu-2]23[S]C(Nc2ccccc2Br)=[N+]3c2ccc(Cl)c([N+](=O)[O-])c2)ccc1Cl [Compound 1, Copper (II) complex with 1-(2-bromophenyl)-3-(4-chloro-3-nitrophenyl)thiourea] | 3.3 ± 0.2 | 8 | 8 | 8 | 8 | 128 | 128 | ≥256 | 8 | 8 | 8 | 8 | 8 | 8 | 8 | 8 | 8 | 8 | 8 | 8 | MIC (S. aureus 585): 8 µg/mL; MIC (S. aureus 586): 4 µg/mL
